The results in this text go back to article PMC9851200, “Multiparameter phenotypic screening for endogenous TFEB and TFE3 translocation identifies novel chemical series modulating lysosome function” (Autophagy, 2022).

Structures are written as SMILES. Like-named read-outs stand apart in the source and are kept apart here.

The test system of data set [1] is SH-SY5Y cells. As to the kind of experiment: Nuclear count from microscopy images (cellular growth and toxicity). Also: reference of the scale not given here.
The test system of a further data set is endogenous TFEB. As to the kind of experiment: TFEB nuclear translocation, immunocytochemistry high-content imaging. The format is cell-based.
The next data set concerns endogenous TFE3. As to the kind of experiment: TFE3 nuclear translocation, immunocytochemistry high-content imaging. The format is cell-based.
The subject of data set [2] is SH-SY5Y cells. As to the kind of experiment: AK (adenylate kinase) release ToxiLight cytotoxicity assay. Also: reference of the scale not given here.
For data set [3], the system named is SH-SY5Y cells.
Excerpt: The PKIS2 Library was supplied by The Structural Genomics Consortium at the University of North Carolina at Chapel Hill.
Where [4] appears, read: PKIS2 primary screening, DQ Red BSA intensity.
Where [5] appears, read: PKIS2 primary screening, DQ Red BSA spot count.
For DQ Intensity in this document: reference of the scale not given here.
For DQ Spot in this document: reference of the scale not given here.

As to `COc1cc2ncn(-c3cc(OCc4ccncc4)c(C(N)=O)s3)c2cc1OC` [UNC10225069A], in the data set with SH-SY5Y cells [1] (PKIS2 primary screening), the “Nuclear Count” value is on record as 104.39. In the data set with endogenous TFEB (PKIS2 primary screening), this compound showed a TFEB % of 3.88%. The compound also showed a TFE3 % in the data set on endogenous TFE3 (PKIS2 primary screening) of 7.35%. In addition, the AK in the data set with SH-SY5Y cells [2] (PKIS2 primary screening) came out at 99.11. Besides, in the data set on SH-SY5Y cells [3] (PKIS2 primary screening), the “DQ Intensity” value is given as 66.90 and the “DQ Spot” value is 87.03.
Turning to `O=C(NCc1cccs1)c1cc(C(=O)c2c(Cl)cccc2Cl)c[nH]1` [UNC10225502A], the “Nuclear Count” value with SH-SY5Y cells [1] (PKIS2 primary screen) is 105.30. For the same compound, in the data set on endogenous TFEB (PKIS2 primary screen), the TFEB % came out at 6.92%. Moreover, the TFE3 % with endogenous TFE3 (PKIS2 primary screen) turned out to be 7.89%. Also, in the data set with SH-SY5Y cells [2] (PKIS2 primary screen), the AK stood at 136.34. In the data set with SH-SY5Y cells [3] (PKIS2 primary screen, DQ Red BSA intensity), the “DQ Intensity” value worked out at 112.22. In addition, the “DQ Spot” value with SH-SY5Y cells [3] (PKIS2 primary screen, DQ Red BSA spot count) is 106.20.
Regarding `Cc1n[nH]c2ccc(-c3cc(OC[C@@H](N)Cc4ccccc4)cnc3-c3ccoc3)cc12.O=C(O)C(F)(F)F.O=C(O)C(F)(F)F` [UNC10225447A], the “Nuclear Count” value with SH-SY5Y cells [1] (PKIS2 primary screening) is 74.49. In the data set on endogenous TFEB (PKIS2 primary screening), this compound showed a TFEB % of 5.41%. The compound also came in with a TFE3 % in the data set with endogenous TFE3 (PKIS2 primary screening) of 18.99%. In the data set on SH-SY5Y cells [2] (PKIS2 primary screening), this compound had an AK of 97.39. In addition, in the data set on SH-SY5Y cells [3] (PKIS2 primary screening), the “DQ Intensity” value came to 66.58 and the “DQ Spot” value came to 65.23.
For the compound `Nc1ncnc2c1ncn2-c1ccc(Cl)cc1` [UNC10225203A], in the data set with SH-SY5Y cells [1] (PKIS2 primary screening), the “Nuclear Count” value is 80.96. Further, the TFEB % with endogenous TFEB (PKIS2 primary screening) was 5.10%. In the data set with endogenous TFE3 (PKIS2 primary screening), this compound returned a TFE3 % of 14.23%. The same compound yielded an AK with SH-SY5Y cells [2] (PKIS2 primary screening) of 145.27. In the data set on SH-SY5Y cells [3] (PKIS2 primary screening), the “DQ Intensity” value came out at 65.28 and the “DQ Spot” value was 88.83.
Regarding `CN(C)CCN(C)C(=O)c1cc(-c2ccncc2)c(-c2ccc(Cl)c(O)c2)o1.Cl.Cl` [UNC10225256A], in the data set on SH-SY5Y cells [1] (PKIS2 primary screening), the “Nuclear Count” value is listed as 130.04. The TFEB % with endogenous TFEB (PKIS2 primary screening) was 10.97%. This compound also showed a TFE3 % in the data set on endogenous TFE3 (PKIS2 primary screening) of 22.07%. Moreover, the AK in the data set on SH-SY5Y cells [2] (PKIS2 primary screening) is on record as 88.55. In addition, in the data set with SH-SY5Y cells [3] (PKIS2 primary screening), the “DQ Intensity” value was determined as 171.47 and the “DQ Spot” value was found to be 68.22.
For `Nc1nc(-c2ccccc2F)c(-c2ccnc3ccccc23)s1` [UNC10225301A], the “Nuclear Count” value in the data set with SH-SY5Y cells [1] (PKIS2 primary screening) is reported as 129.96. The same compound returned a TFEB % in the data set on endogenous TFEB (PKIS2 primary screening) of 2.45%. Besides, the TFE3 % with endogenous TFE3 (PKIS2 primary screening) worked out at 14.12%. Besides, in the data set with SH-SY5Y cells [2] (PKIS2 primary screening), the AK came to 75.40. Moreover, the “DQ Intensity” value with SH-SY5Y cells [3] (setting [4]) worked out at 64.84. The “DQ Spot” value in the data set with SH-SY5Y cells [3] (setting [5]) amounted to 87.10.
On to `Cn1cc(-c2ccc3c(c2)CCN3C(=O)Cc2cccc(F)c2)c2c(N)ncnc21` [UNC10225297A], for which the “Nuclear Count” value in the data set with SH-SY5Y cells [1] (PKIS2 primary screening) is recorded as 104.97. The compound also registered a TFEB % with endogenous TFEB (PKIS2 primary screening) of 6.82%. The compound further had a TFE3 % in the data set with endogenous TFE3 (PKIS2 primary screening) of 15.69%. The compound further gave an AK in the data set on SH-SY5Y cells [2] (PKIS2 primary screening) of 109.17. Also, in the data set on SH-SY5Y cells [3] (PKIS2 primary screening), the “DQ Intensity” value came out at 118.40 and the “DQ Spot” value stood at 112.51.
In the case of `FC(F)(F)c1ccc(-c2cc(-c3c[nH]nc3-c3ccccn3)ccn2)cc1` [UNC10225241A], the “Nuclear Count” value in the data set on SH-SY5Y cells [1] (PKIS2 primary screening) is given as 106.44. Also, the TFEB % in the data set with endogenous TFEB (PKIS2 primary screening) is listed as 3.57%. The same compound came in with a TFE3 % with endogenous TFE3 (PKIS2 primary screening) of 6.11%. The AK in the data set with SH-SY5Y cells [2] (PKIS2 primary screening) was found to be 109.99. Besides, the “DQ Intensity” value in the data set on SH-SY5Y cells [3] (setting [4]) was found to be 101.49. For the same compound, in the data set on SH-SY5Y cells [3] (setting [5]), the “DQ Spot” value is recorded as 108.48.
For the compound `COc1ccc(Nc2nccc(N3CCC(NS(=O)(=O)c4ccc(NC(C)=O)cc4)C3)n2)cc1` (stereo not drawn) [GSK1379729], the “Nuclear Count” value in the data set on SH-SY5Y cells [1] (PKIS2 primary screening) came out at 90.61. In addition, the TFEB % in the data set with endogenous TFEB (PKIS2 primary screening) is 5.22%. In the data set on endogenous TFE3 (PKIS2 primary screening), this compound returned a TFE3 % of 16.51%. The AK with SH-SY5Y cells [2] (PKIS2 primary screening) came to 69.35. The “DQ Intensity” value with SH-SY5Y cells [3] (setting [4]) worked out at 76.81. Further, the “DQ Spot” value in the data set on SH-SY5Y cells [3] (setting [5]) was 100.23.
Take `Nc1ncc(-c2cccnc2)c2scc(-c3ccc4c(c3)CCN4C(=O)Cc3ccccc3)c12` [UNC10225369A]: the “Nuclear Count” value in the data set with SH-SY5Y cells [1] (PKIS2 primary screening) is on record as 102.35. The compound also showed a TFEB % in the data set on endogenous TFEB (PKIS2 primary screening) of 3.58%. In the data set with endogenous TFE3 (PKIS2 primary screening), this compound yielded a TFE3 % of 19.63%. In the data set on SH-SY5Y cells [2] (PKIS2 primary screening), this compound gave an AK of 64.72. The “DQ Intensity” value in the data set with SH-SY5Y cells [3] (setting [4]) is given as 84.54. Also, the “DQ Spot” value in the data set with SH-SY5Y cells [3] (setting [5]) was determined as 86.78.
Take `COc1ccc(Nc2nccc(N3CCC(NC(=O)Nc4cc(C)ccc4C)C3)n2)cc1` (stereo not drawn) [GSK1379741]: the “Nuclear Count” value with SH-SY5Y cells [1] (PKIS2 primary screening) was determined as 115.70. In addition, in the data set on endogenous TFEB (PKIS2 primary screening), the TFEB % was determined as 3.59%. In addition, in the data set with endogenous TFE3 (PKIS2 primary screening), the TFE3 % was 9.28%. In the data set with SH-SY5Y cells [2] (PKIS2 primary screening), this compound displayed an AK of 100.67. Besides, the “DQ Intensity” value in the data set with SH-SY5Y cells [3] (setting [4]) is reported as 91.14. Further, the “DQ Spot” value in the data set on SH-SY5Y cells [3] (setting [5]) was determined as 90.28.
In the case of `COc1cc(Nc2nccc(N3CCC(NC(=O)c4cccc(C#N)c4)C3)n2)cc(OC)c1OC` (stereo not drawn) [GSK1379751], the “Nuclear Count” value in the data set on SH-SY5Y cells [1] (PKIS2 primary screening) was 92.57. This compound also yielded a TFEB % in the data set with endogenous TFEB (PKIS2 primary screening) of 5.62%. In addition, in the data set on endogenous TFE3 (PKIS2 primary screening), the TFE3 % was found to be 13.31%. This compound also showed an AK in the data set on SH-SY5Y cells [2] (PKIS2 primary screening) of 124.29. In addition, the “DQ Intensity” value in the data set with SH-SY5Y cells [3] (setting [4]) came out at 80.41. Besides, the “DQ Spot” value in the data set on SH-SY5Y cells [3] (setting [5]) came to 103.20.
Consider `COc1cccc(CNC(=O)NC2CCN(c3ccnc(Nc4cc(OC)c(OC)c(OC)c4)n3)C2)c1` (stereo not drawn) [GSK1379765], for which, in the data set with SH-SY5Y cells [1] (PKIS2 primary screening), the “Nuclear Count” value turned out to be 98.25. This compound displayed a TFEB % in the data set on endogenous TFEB (PKIS2 primary screening) of 3.20%. The TFE3 % in the data set on endogenous TFE3 (PKIS2 primary screening) stood at 15.97%. Moreover, the AK in the data set on SH-SY5Y cells [2] (PKIS2 primary screening) was 74.87. Further, the “DQ Intensity” value in the data set with SH-SY5Y cells [3] (setting [4]) turned out to be 73.44. Further, the “DQ Spot” value in the data set on SH-SY5Y cells [3] (setting [5]) came to 97.23.
Take `COc1cc(Nc2nccc(N3CCC(NC(=O)Nc4cc(C)ccc4C)C3)n2)cc(OC)c1OC` (stereo not drawn) [GSK1379762]: in the data set with SH-SY5Y cells [1] (PKIS2 primary screening), the “Nuclear Count” value came to 111.04. For the same compound, in the data set on endogenous TFEB (PKIS2 primary screening), the TFEB % was 7.03%. The same compound had a TFE3 % in the data set with endogenous TFE3 (PKIS2 primary screening) of 14.40%. The compound further yielded an AK in the data set on SH-SY5Y cells [2] (PKIS2 primary screening) of 74.55. For the same compound, the “DQ Intensity” value in the data set on SH-SY5Y cells [3] (setting [4]) is 110.39. For the same compound, the “DQ Spot” value with SH-SY5Y cells [3] (setting [5]) was 96.86.
